Measurements published in patent publication US9618453B2, “Aggregation induced emission of fluorescent bioprobes and methods of using the same” (THE HONG KONG UNIVERSITY OF SCIENCE AND TECHNOLOGY, priority 2011, dated 2017).

Assays:
BSA (35 Cys) = BSA (35 Cys) (Bos taurus, UniProt P02769); test: Fluorescent labeling of Cys residues of protein with TPEMBR, SDS-PAGE; set-up: species or system bovine; details: series of dye/thiol ratios
Experimental: 2.5 μL Tris-HCl (1 M), 2.5 μL TCEP (20 mM), 5 μL BSA (1 mg/mL, 15 μM), and 30 μL urea (8 M in water) was added to a 1.5 mL Eppendorf tube and mixed well. The mixture was incubated at room temperature for 30 min to pre-reduce the disulfide bonds with TCEP. Then, 10 μL of the TPEMBR DMSO stock solution (2.5 mM 5×) was added to the system and made the final volume 50 μL. The reaction mixture was incubated for 3 hours at 50° C. in an Eppendorf Thermomixer. Then, samples were cooled either to room temperature for instant use or frozen for eventual use.
In order to ensure that the Cys residues were sufficiently labeled with TPEMBR, a longer reaction time (usually overnight) at or below room temperature was required. Alternatively, the reaction time could be reduced if labeling was carried out at 50° C. To verify the time-dependence of labeling efficiency, bovine serum albumin (BSA) samples were labeled with TPEMBR for different times ranging from 10 min to 4 h and analyzed by SDS-PAGE. The fluorescence intensity of the labeled BSA increased as the reaction time was extended. The maximum intensity under specific labeling conditions was observed after 3 h and remained unchanged even with an additional 1 h of reaction time (FIGS. 11a and 11b). […] The time-dependent labeling effect provides a way to determine the desirable DOL according to different applications by simply controlling the labeling time. Meanwhile, a lower temperature labeling process with a longer reaction time could be a better choice to obtain fluorescent proteins while maintaining their native structures.
BSA samples were subjected to labeling with different dye concentrations. The SDS-PAGE fluorescence intensity of labeled BSA increased with increasing dye concentration. […] Further increasing the dye concentration could give higher fluorescence intensity due to nonspecific labeling. Clearly, the DOL of protein samples can be controlled by varying the dye concentration.
Specific labeling of Cys residues by TPEMBR was examined through the labeling of proteins with different Cys contents. BSA (35 Cys), yeast enolase (single Cys) and horse myoglobin (0 Cys) were labeled with 0.5 mM of TPEMBR, respectively. The corresponding fluorescent products were analyzed on gel. […] The results further confirmed the specificity of TPEMBR to Cys residue when the working concentration of 0.5 mM was used.
BSA was labeled by each dye with a series of varying dye/thiol ratios. After the electrophoresis, the gel fluorescent image was taken under UV excitation and the fluorescence intensity was obtained from three independent experiments. Fluorescence intensities normalized with the sample with the lowest dye concentration are plotted versus the dye/thiol ratio (FIG. 16). […] This self-quenching effect is inevitable for self-quenching dyes such as 5-BMF and limits these dyes' application on quantification of proteins. In contrast, detection and quantification of proteins with high contents of Cys can be easily achieved by using AIE active molecules such as TPEMBR.

[1] = target: bovine serum albumin (BSA) (Bos taurus, UniProt P02769); test: SDS-PAGE staining of BSA with TPENCS (prestaining, poststaining), compared with CBB and FITC; details: for LOD / limit of detection (LOD): BSA on SDS-PAGE gel, CBB restaining of the same gel; for LOD: TPENCS poststaining; for limit of detection (LOD): TPENCS prestaining; for LOD on nitrocellulose membrane: after transfer from gel; for self-quenching effect versus F/P ratio: equal amount of BSA, series of dye concentrations
Experimental: The protein samples were treated with denaturizing 4× sample buffer containing 62.5 mM Tris (pH 8.5), 20% (v/v) glycerol, 4% SDS (w/v), and 3% (w/v) DTT for 5 min at 85˜95° C. in Protein Lobind Eppendorf cups. Serial dilutions of the proteins were labeled and loaded onto the gel lanes. Electrophoresis was carried out on self-cast polyacrylamide mini-gels (1 mm thick) using a discontinuous buffer system. The separation gel (pH 8.8) contained 12% polyacrylamide. The stacking gel (pH 6.8) contained 4% polyacrylamide. Both gels have an acrylamide/bis ratio of 37.5:1. The running buffer contained 25 mM Tris (pH 8.6), 192 mM glycine and 0.1% SDS (w/v) in water. All solutions were freshly prepared prior to use. SDS-PAGE was carried out on a vertical polyacrylamide gel system at a current of 15 mA until the protein bands reached the interface of the separating gel. Separation was performed at 100 V for two hours.
Fluorescence prestaining of proteins for SDS-PAGE gels was applied prior to the denaturation step. About 1 mg of the protein was dissolved in 1 mL of 0.1 M sodium bicarbonate buffer solution (15 μM). 10 μL of TPENCS DMSO stock solution (5 mM) was added to 100 μL protein solution. The pH was optimized to ˜9 by adding 1 M sodium bicarbonate buffer. The reaction mixture was incubated for 2 h at 37° C. in an Eppendorf Thermomixer. Then, samples were cooled either to room temperature for instant use or frozen for eventual use.
2.5 g of Coomassie blue R250 was dissolved in 1000 mL of 50% (v/v) methanol, 10% (v/v) acetic acid, and 40% (v/v) water with stirring as needed. The solution was filtered to remove any insoluble material. The final concentration of Coomassie blue R250 was 0.25% (w/v). After electrophoresis, the apparatus was disassembled and the gel was immerged into CBB solution. The gel was stained at room temperature overnight with gentle agitation. The Coomassie stain was removed by aspiration after staining. The gel was then immerged into the destaining solution composed of 50% (v/v) methanol, 10% (v/v) acetic acid, and 40% (v/v) water which allowed the gel to destain with gentle agitation. The destaining step was repeated several times, removing destaining solution at each change by aspiration. The destaining was continued until the protein bands were seen clearly without any background staining of the gel.
The protocol of gel fluorescent poststaining with TPENCS was similar to that of the CBB poststaining. The only difference was that the composition of the staining solution was prepared by mixing 1 mL DMSO stock solution of TPENCS (5 mM) with 20 mL 10% SDS aqueous (w/v) solution, and the pH was optimized to ˜9.0 by adding 1 M sodium bicarbonate buffer. The destaining solution was 10% SDS aqueous (w/v) solution. Similar to the destaining protocol of Coomassie brilliant blue, the gel was immerged into the 10% SDS aqueous (w/v) solution and destained with gentle agitation. The destaining solution was changed every two hours and the whole destaining process was finished within six hours.
Since nearly all kinds of proteins have reactive amine groups (lysine residues) on their molecular chains, bovine serum albumin (BSA), a commonly used protein, was employed as a test sample to verify the staining effect of TPENCS. The prestained BSA was loaded onto the gel lane b and a pure BSA sample was loaded on lane c at the same time as a control. After electrophoresis, the gel fluorescent image was taken under UV excitation within the Gel Doc XR+ documentation system (FIG. 2a). […] The gel was then introduced to the poststaining procedure and the fluorescent image was again obtained (FIG. 2b).

[2] = Photoluminescence in THF/water mixtures with different water fractions (aggregation induced emission); type: physicochemical
Description: The AIE of TPENCS is illustrated in FIG. 1. […] With water content ranging from 0-70%, the fluorescence intensity remained at a very low level. When the water concentration was in the 80-90 vol % range, a rapid and dramatic increase of the fluorescence intensity with increasing water content was observed (FIG. 1b). The PL intensity of TPENCS in the water/THF solution with a water fraction of 90 vol % was approximately 50-fold higher than that in the mixture with 70% water. The quantum efficiency of TPENCS was 52.2% in the solid state.
Similar to other AIE active molecules, TPEMBR only gave weak emission in good solvents such as THF. […] To quantify the effect of water content on the degree of fluorescent emission enhancement, the photoluminescence intensity of TPEMBR was measured where the fraction of water was increased from 0 to 90 vol %. With the water content in the range of 0-70%, the fluorescent intensity remained at a very low level. With the water fraction reaching the 80-90 vol % range, a rapid and dramatic increase of the fluorescent intensity was observed (FIG. 9b). The photoluminescence intensity of TPEMBR in the water/THF solution with a water fraction of 90 vol % was approximately 50-fold stronger than that in the mixture with 70% water. In the solid state, the quantum efficiency of TPEMBR was determined to be 31.7%.
The AIE of SITC is illustrated in FIGS. 17a and 17b. The wavelength at maximum absorption of SITC was at 363 nm and the emission maximum was at 490 nm. […] To quantify the effect of water content on the elevation of the fluorescent emission, the photoluminescence intensity of SITC was measured with concentration of water increasing from 0 to 90 vol %. With water content ranging from 0-70%, the fluorescent intensity remained at a very low level. When the water concentration was in the 80-95 vol % range, a rapid and dramatic increase of the fluorescent intensity with increasing water content was observed (FIG. 17b). The photoluminescence intensity of SITC in the water/THF solution with a water fraction of 95 vol % was approximately 50-fold higher than that in the mixture with 70% water. The quantum efficiency of SITC was 45.8% in the solid state.
(§1) Tetrahydrofuran (THF; Labscan) was distilled under nitrogen from sodium benzophenone ketyl immediately prior to use. Acrylamide was purchased from Bio-Rad. Aminoallyl-dUTP (aa-dUTP), dNTPs, DNase I (RNase-free), DNA Polymerase I, Klenow Fragment exo-, Random Hexamer Primer, Long PCR Enzyme Mix and GeneJET™ PCR Purification Kit, GeneRuler™ 100 bp Plus DNA Ladder (ready-to-use, 100-3000 bp), 6×DNA Loading Dye were purchased from Fermentas (Thermo Scientific). Deep VentR™ exo-DNA Polymerase was purchased from New England Biolabs (NEB). Synthesized oligonucleotides (primers) were purchased from Tech Drogon Limited. GelRed™ Nucleic Acid Gel Stain (10000× in water) was purchased from Biotium. Other chemicals, reagents and solvents were all purchased from Aldrich or Invitrogen. ^1H and ^13C NMR spectra were measured on a Bruker ARX 400 NMR spectrometer using CDCl3 as solvent. High-resolution mass spectra (HRMS) were taken on a Finnigan TSQ 7000 triple quadrupole spectrometer in a MALDI-TOF mode. UV spectra were measured on a Milton Roy Spectronic 3000 Array spectrophotometer. Fluorescence (FL) spectra were recorded on a Perkin-Elmer LS 55 spectrofluorometer. FL quantum yields (ΦF) of amorphous powders of siloles were measured using C-701 Time-Resolved Spectrofluorometer with the integrating sphere as accessory.
Structure of dye is confirmed by standard spectroscopic methods (FIGS. 23, 26a, and 27a). In order to confirm TPEITC is AIE-active, we investigated its fluorescence in THF/water mixtures with different water fractions. […] TPEITC molecules with hydrophobic aromatic cores precipitated and became aggregate in the nonsolvent mixture. Aggregation blocks the nonradiative relaxation channels and populates the radiative decay, thus resulting in high luminescence. […]

[3] = Fluorescence quantum efficiency in the solid state; type: physicochemical
Description: as §1

[4] = UV absorption of SITC for DOL calculation (Beer-Lambert law); type: physicochemical
Experimental: The 1061 bp template DNA was a PCR product of plasmid DNA. dTTP was replaced with increasing amount of SITC-dUTP. DOL of labeled DNA (number of dyes per 100 bases) were calculated from UV absorption base on Beer-Lambert law. The calculated molar extinction coefficient (ε) of SITC is 10277 cm^−1M^−1 and its correction factor (CF) is 2.08.

Sequence of bovine serum albumin (BSA) (P02769 25-607): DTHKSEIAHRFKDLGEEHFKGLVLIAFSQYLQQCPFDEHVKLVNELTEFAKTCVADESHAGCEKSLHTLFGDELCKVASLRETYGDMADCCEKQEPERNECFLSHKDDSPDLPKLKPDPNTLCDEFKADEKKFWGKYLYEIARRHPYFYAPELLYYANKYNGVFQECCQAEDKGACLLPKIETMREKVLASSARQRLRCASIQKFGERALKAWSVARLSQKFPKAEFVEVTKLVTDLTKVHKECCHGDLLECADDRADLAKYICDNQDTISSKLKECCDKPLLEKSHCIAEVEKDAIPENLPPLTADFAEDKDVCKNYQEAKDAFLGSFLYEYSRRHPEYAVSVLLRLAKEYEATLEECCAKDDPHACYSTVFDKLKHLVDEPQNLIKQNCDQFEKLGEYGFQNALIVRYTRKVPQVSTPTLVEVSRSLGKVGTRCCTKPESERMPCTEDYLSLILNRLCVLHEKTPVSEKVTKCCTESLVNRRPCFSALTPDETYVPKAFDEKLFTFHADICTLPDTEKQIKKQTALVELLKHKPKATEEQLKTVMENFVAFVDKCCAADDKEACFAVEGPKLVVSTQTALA
Sequence of BSA (35 Cys) (P02769 25-607): as above

O=C1OC2(c3ccc(O)cc3Oc3cc(O)ccc32)c2ccc(CBr)cc21 [5-BMF, reference compound]
self-quenching effect versus dye/thiol ratio (BSA (35 Cys)): 30 times

CCOc1ccc(Nc2ccc(C(=C3C=CC(=[N+](CC)Cc4cccc(S(=O)(=O)[O-])c4)C=C3)c3ccc(N(CC)Cc4cccc(S(=O)(=O)[O-])c4)cc3)cc2)cc1.[Na+] [CBB, reference compound]
LOD [1]: remained the same | limit of detection (LOD) [1]: 0.2 µg

C[Si]1(C)C(c2ccc(CN=C=S)cc2)=C(c2ccccc2)C(c2ccccc2)=C1c1ccc(CN=C=S)cc1 [SITC, 1,1-dimethyl-2,5-bis[4-(isothiocyanatemethyl)phenyl]-3,4-diphenyl silole]
emission maximum [2]: 490 nm | wavelength at maximum absorption [2]: 363 nm | photoluminescence intensity relative to the mixture with 70% water ([2]; water/THF solution, water fraction 95 vol %): approximately 50 fold | quantum efficiency [3]: 45.8% | calculated molar extinction coefficient (ε) [4]: 10277 cm^−1M^−1 | correction factor (CF) [4]: 2.08

S=C=NCc1ccc(C(=C(c2ccccc2)c2ccccc2)c2ccccc2)cc1 [TPEITC]
fluorescence intensity (I) relative to pure THF solution (I0) ([2]; THF/water mixture, water content 90 vol %): about 36177 fold

S=C=NCc1ccc(C(=C(c2ccccc2)c2ccc(CN=C=S)cc2)c2ccccc2)cc1 [TPENCS, 1,2-bis[4-(isothiocyanatemethyl)phenyl]-1,2-diphenylethene]
PL intensity relative to the mixture with 70% water ([2]; water/THF solution, water fraction 90 vol %): approximately 50 fold | quantum efficiency [3]: 52.2% | LOD [1]: 0.1 µg | limit of detection (LOD) [1]: 0.2 µg | LOD on nitrocellulose membrane ([1]; poststaining): 1 µg | effect on protein migration ([1]; prestained versus poststained BSA bands): no significant effect on protein migration rate | LOD on nitrocellulose membrane ([1]; prestaining): 2 µg | self-quenching effect versus F/P ratio ([1]; prestaining): kept increasing

fluorescein isothiocyanate [FITC, reference compound]
self-quenching effect versus F/P ratio ([1]; prestaining): 1000 times
